Values quoted from earlier work as cited in paper PMC9788431, “Combination of Docking-Based and Pharmacophore-Based Virtual Screening Identifies Novel Agonists That Target the Urotensin Receptor” (Molecules, 2022).
“And” between values parts separate entries of the source, which are not always exact repeats. Equal values may be shown once.

Target: T1, UT receptor (Homo sapiens, UniProt Q9UKP6)
T1 construct: SNAP-tag; expressed in transfected cells; host or cells: 293A8 (HEK293A stably transfected with the UT receptor); inferred, the calcium-assay paragraph names no cells
T1 sequence (Q9UKP6 1-389): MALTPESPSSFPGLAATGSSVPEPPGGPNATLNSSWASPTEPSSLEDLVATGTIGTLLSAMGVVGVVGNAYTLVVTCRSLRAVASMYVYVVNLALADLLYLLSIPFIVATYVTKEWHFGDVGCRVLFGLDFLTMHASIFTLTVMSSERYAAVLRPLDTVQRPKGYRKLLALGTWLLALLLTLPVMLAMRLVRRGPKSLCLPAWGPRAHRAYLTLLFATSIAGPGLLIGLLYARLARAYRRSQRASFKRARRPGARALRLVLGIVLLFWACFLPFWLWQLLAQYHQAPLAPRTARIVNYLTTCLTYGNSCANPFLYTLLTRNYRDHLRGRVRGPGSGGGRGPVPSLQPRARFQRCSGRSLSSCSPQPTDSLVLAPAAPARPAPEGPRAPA
Design: method as in ChEMBL database and others
Conditions: antagonist; Table S1 benchmarking ligands; ref ChEMBL database and others; cited from earlier work

Row | SMILES | IC50
1 | CC(C)[C@H](NC(=O)[C@@H]1CSSC[C@H](NC(=O)[C@H](C)N)C(=O)N[C@@H](Cc2ccccc2)C(=O)N2CCc3ccccc3[C@@H]2C(=O)N[C@@H](CCCCN)C(=O)N[C@@H](Cc2ccc(O)cc2)C(=O)N1)C(=O)O [CHEMBL3104465] | 21 nM
2 | Cc1ccc2sc(C(=O)NC3CCN(Cc4ccc(OC5CCNCC5)c(Br)c4)CC3)cc2c1 [CHEMBL3968841] | 74 nM
3 | COc1cc(Br)c(S(=O)(=O)Nc2ccc(Cl)c(O[C@@H]3CCN(C)C3)c2)cc1OC [CHEMBL2348501] | 43 nM
4 | CCN1CCN(c2cccc3c2C(=O)N([C@H](CCCNS(=O)(=O)c2cccs2)c2ccc(OC)c(OC)c2)C3=O)CC1 [CHEMBL566433] | 150 nM
5 | CN(CC(=O)N1CCCCC1CN1CCCC1)c1ccc(Cl)c(Cl)c1 (stereo not shown) [CHEMBL254154] | 631 nM
6 | CC(C)[C@H](NC(=O)[C@@H]1CSSC[C@H](NC(=O)[C@H](C)N)C(=O)N[C@@H](Cc2ccccc2)C(=O)N[C@@H](c2ccccc2)C(=O)N[C@@H](CCCCN)C(=O)N[C@@H](Cc2ccc(O)cc2)C(=O)N1)C(=O)O [CHEMBL3104462] | 29.5 nM
7 | O=C(NC1CCN(Cc2ccc(OC3CCNCC3)c(Br)c2)CC1)c1cc2cc(C(F)(F)F)ccc2s1 [CHEMBL3906682] | 100 nM
8 | COc1ccccc1-c1ccc2cc(C(=O)NC3CCN(Cc4ccc(OC5CCNCC5)c(Br)c4)CC3)sc2c1 [CHEMBL3915656] | 560 nM
9 | O=C(NCCN1CCC(O)(Cc2ccccc2)CC1)Nc1ccnc2ccoc12 [CHEMBL3358671] | 450 nM
10 | O=C(NC1CCN(Cc2ccc(OC3CCNCC3)c(Br)c2)CC1)c1cc2cc(Br)ccc2s1 [CHEMBL3915670] | 86 nM
11 | Cc1cccc(CC2(O)CCN(CCNC(=O)Nc3ccnc4ccsc34)CC2)c1 [CHEMBL3358683] | 140 nM
12 | O=C(NCCN1CCC(O)(Cc2ccccc2)CC1)Nc1ccnc2sccc12 [CHEMBL3358673] | 930 nM
13 | CN1CC[C@H](Oc2cc(NCc3c(Br)ccc4c3OCO4)ccc2C(F)(F)F)C1 [CHEMBL2348518] | 620 nM
14 | CC(C)[C@H](NC(=O)[C@@H]1CSSC[C@H](NC(=O)[C@H](C)N)C(=O)N[C@@H](Cc2ccccc2)C(=O)N[C@H](Cc2cccc3ccccc23)C(=O)N[C@@H](CCCCN)C(=O)N[C@@H](Cc2ccc(O)cc2)C(=O)N1)C(=O)O [CHEMBL3104638] | 46 nM
15 | Cc1ccc(-c2ccc3cc(C(=O)NC4CCN(Cc5ccc(OC6CCNCC6)c(Br)c5)CC4)sc3c2)cc1 [CHEMBL3898238] | 140 nM
16 | CC(C)[C@H](NC(=O)[C@@H]1CSSC[C@H](NC(=O)[C@H](C)N)C(=O)N[C@@H](Cc2ccccc2)C(=O)N[C@@H](C(c2ccccc2)c2ccccc2)C(=O)N[C@@H](CCCCN)C(=O)N[C@@H](Cc2ccc(O)cc2)C(=O)N1)C(=O)O [CHEMBL3104643] | 277 nM
17 | COc1ccc([C@@H](CCCNS(=O)(=O)c2cccs2)N2C(=O)c3cccc(N4CCN(C(C)C)CC4)c3C2=O)cc1OC [CHEMBL567736] | 150 nM
18 | COc1cc(Br)c(S(=O)(=O)Nc2ccc(C(F)(F)F)c(OCCN(C)C)c2)cc1OC [CHEMBL2348523] | 100 nM
19 | Cc1ccccc1CC1(O)CCN(CCNC(=O)Nc2ccnc3ccsc23)CC1 [CHEMBL3358682] | 20 nM
20 | CC(C)[C@H](NC(=O)[C@@H]1CSSC[C@H](NC(=O)[C@H](C)N)C(=O)N[C@@H](Cc2ccccc2)C(=O)N2Cc3ccccc3C[C@@H]2C(=O)N[C@@H](CCCCN)C(=O)N[C@@H](Cc2ccc(O)cc2)C(=O)N1)C(=O)O [CHEMBL3104467] | 88 nM
21 | CCN1CCN(c2cccc3c2CN([C@H](CCCNCc2cccs2)c2ccc(OC)c(OC)c2)C3=O)CC1 [CHEMBL568123] | 59 nM
22 | COc1ccc([C@H](CCCNS(=O)(=O)c2cccs2)N2C(=O)c3cccc(N4CCN([C@H](C)c5ccccc5)CC4)c3C2=O)cc1OC [CHEMBL565580] | 260 nM
23 | COc1cc2c(cc1OC)C(CCc1cc(F)ccc1F)N(CCNC(=O)Nc1cc(C)nc3ccccc13)CC2 (stereo not shown) [CHEMBL1163360] | 67 nM
24 | COc1ccc([C@@H](CCCNS(=O)(=O)c2cccs2)N2Cc3c(cccc3N3CCN(C(C)C)CC3)C2=O)cc1OC [CHEMBL568637] | 53 nM
25 | COc1ccc([C@@H](CCCN(C)S(=O)(=O)c2cccs2)N2Cc3c(cccc3N3CCN(C(C)C)CC3)C2=O)cc1OC [CHEMBL578203] | 500 nM
26 | O=C(NC1CCN(Cc2ccc(OC3CCNCC3)c(Br)c2)CC1)c1cc2cc(F)ccc2s1 [CHEMBL3924660] | 53 nM
27 | CCc1cc(NC(=O)NCCN2CCC(O)(Cc3ccccc3)CC2)c2sccc2n1 [CHEMBL3358680] | 60 nM
28 | COc1ccc([C@@H](CCCNS(=O)(=O)c2cccs2)N2C(=O)c3cccc(N4CCN([C@H](C)c5ccccc5)CC4)c3C2=O)cc1OC [CHEMBL568165] | 240 nM

Row | SMILES | IC50
29 | CC(C)[C@H](NC(=O)[C@@H]1CSSC[C@H](NC(=O)[C@H](C)N)C(=O)N[C@@H](Cc2ccccc2)C(=O)N[C@H](c2ccccc2)C(=O)N[C@@H](CCCCN)C(=O)N[C@@H](Cc2ccc(O)cc2)C(=O)N1)C(=O)O [CHEMBL3104463] | 27.5 nM
30 | CC(C)[C@H](NC(=O)[C@@H]1CSSC[C@H](NC(=O)[C@H](C)N)C(=O)N[C@@H](Cc2ccccc2)C(=O)N[C@@H]2Cc3c([nH]c4ccccc34)CN(C2=O)[C@@H](CCCCN)C(=O)N[C@@H](Cc2ccc(O)cc2)C(=O)N1)C(=O)O [CHEMBL3104461] | 60 nM
31 | Cc1ccc(CC2(O)CCN(CCNC(=O)Nc3ccnc4ccsc34)CC2)cc1 [CHEMBL3358684] | 190 nM
32 | COc1ccc([C@@H](CCCNS(=O)(=O)c2c(C)n[nH]c2C)N2C(=O)c3cccc(N4CCN([C@H](C)c5ccccc5)CC4)c3C2=O)cc1OC [CHEMBL567759] | 47 nM
33 | O=C(NC1CCN(Cc2ccc(OC3CCNCC3)c(Br)c2)CC1)c1cc2cc(Cl)ccc2s1 [CHEMBL3896625] | 51 nM
34 | O=C(NC1CCN(Cc2ccc(OC3CCNCC3)c(Br)c2)CC1)c1cc2cc(-c3ccccc3)ccc2s1 [CHEMBL3949719] | 310 nM
35 | COc1ccc([C@@H](CCCNS(=O)(=O)c2cccs2)N2C(=O)c3cccc(N4CCNCC4)c3C2=O)cc1OC [CHEMBL566366] | 500 nM
36 | COc1ccc([C@@H](CCCNS(=O)(=O)c2cccs2)N2C(=O)c3cccc(N4CCN(C)CC4)c3C2=O)cc1OC [CHEMBL567949] | 220 nM
37 | COc1ccc2sc(C(=O)NC3CCN(Cc4ccc(OC5CCNCC5)c(Br)c4)CC3)cc2c1 [CHEMBL3957806] | 100 nM
38 | O=C(NCCN1CCC(O)(Cc2ccccc2Br)CC1)Nc1ccnc2ccsc12 [CHEMBL3358685] | 20 nM
39 | CN(C)CCOc1cc(NCc2ccccc2C(F)(F)F)ccc1Cl [CHEMBL2348515] | 520 nM and 765 nM
40 | CCN1CCN(c2cccc3c2CN([C@H](CCCNS(=O)(=O)c2c[nH]cn2)c2ccc(OC)c(OC)c2)C3=O)CC1 [CHEMBL578207] | 51 nM
41 | COc1ccc([C@@H](CCCNC(=O)c2cnoc2C)N2C(=O)c3cccc(N4CCN([C@H](C)c5ccccc5)CC4)c3C2=O)cc1OC [CHEMBL568764] | 760 nM
42 | CCN1CCN(c2cccc3c2CN([C@H](CCCNC(=O)c2cccs2)c2ccc(OC)c(OC)c2)C3=O)CC1 [CHEMBL567075] | 140 nM
43 | O=C(N[C@H]1CCN(Cc2ccc(OC3CCNCC3)c(Br)c2)C1)c1ccc(Cl)c(Cl)c1 [CHEMBL495075] | 4 nM
44 | COc1cc(Br)c([S+]([O-])Cc2ccc(Cl)c(O[C@@H]3CCN(C)C3)c2)cc1OC (stereo partly shown) [CHEMBL2348504] | 245 nM
45 | O=C(NC1CCN(Cc2ccc(OC3CCNCC3)c(Br)c2)CC1)c1cnccn1 [CHEMBL3920751] | 610 nM
46 | CN1CC[C@H](Oc2cc(NCc3ccccc3Br)ccc2C(F)(F)F)C1 [CHEMBL2348514] | 821 nM
47 | COc1cc(Br)c(SCc2ccc(Cl)c(O[C@@H]3CCN(C)C3)c2)cc1OC [CHEMBL2348505] | 440 nM
48 | COc1cc(Br)c(CNc2ccc(C(F)(F)F)c(O[C@H]3CCN(C)C3)c2)cc1OC [CHEMBL2348511] | 191 nM
49 | CC(C)[C@H](NC(=O)[C@@H]1CSSC[C@H](NC(=O)[C@H](C)N)C(=O)N[C@@H](Cc2ccccc2)C(=O)N[C@@H](Cc2ccc(I)cc2)C(=O)N[C@@H](CCCCN)C(=O)N[C@@H](Cc2ccc(O)cc2)C(=O)N1)C(=O)O [CHEMBL3104639] | 58 nM
50 | COc1cc(Br)c(S(=O)(=O)Nc2ccc(C(F)(F)F)c(OCCN3CCN(C)CC3)c2)cc1OC [CHEMBL2348527] | 840 nM
51 | O=C(NC1CCN(Cc2ccc(OC3CCNCC3)c(Br)c2)CC1)c1cccs1 [CHEMBL3979822] | 130 nM
52 | CC(C)[C@H](NC(=O)[C@@H]1CSSC[C@H](NC(=O)[C@H](C)N)C(=O)N[C@@H](Cc2ccccc2)C(=O)N[C@@H](Cc2cccc3ccccc23)C(=O)N[C@@H](CCCCN)C(=O)N[C@@H](Cc2ccc(O)cc2)C(=O)N1)C(=O)O [CHEMBL3104637] | 17 nM
53 | Cn1ccc2c(NC(=O)NCCN3CCC(O)(Cc4ccccc4)CC3)ccnc21 [CHEMBL3358667] | 160 nM
54 | N#Cc1ccc2sc(C(=O)NC3CCN(Cc4ccc(OC5CCNCC5)c(Br)c4)CC3)cc2c1 [CHEMBL3977330] | 25 nM
55 | COc1ccc([C@@H](CCCN(C)S(=O)(=O)c2cccs2)N2Cc3c(cccc3N3CCNCC3)C2=O)cc1OC [CHEMBL565416] | 410 nM
